Laboratory results published in PubChem BioAssay (NCI).
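In this assay, cells in 96-well plates receive the compound at five concentrations for 48 hours. Endpoints are linearly interpolated between the surrounding concentrations. The concentration for 50% growth inhibition is given as GI50. TGI marks complete inhibition of growth.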

How the values were obtained:
Experiment in all cases: NCI-60 cell line screen, 48 h
OVCAR-8 ovarian = test system: OVCAR-8 ovarian
MALME-3M melanoma = test system: MALME-3M melanoma
NCI/ADR-RES ovarian = test system: NCI/ADR-RES ovarian
T-47D breast = test system: T-47D breast
A498 renal = test system: A498 renal
NCI-H23 lung = test system: NCI-H23 lung
NCI-H522 lung = test system: NCI-H522 lung
OVCAR-3 ovarian = test system: OVCAR-3 ovarian
SK-MEL-28 melanoma = test system: SK-MEL-28 melanoma
UACC-62 melanoma = test system: UACC-62 melanoma
SF-268 CNS = test system: SF-268 CNS
786-0 renal = test system: 786-0 renal
NCI-H460 lung = test system: NCI-H460 lung
M14 melanoma = test system: M14 melanoma
SR leukemia = test system: SR leukemia
SW-620 colon = test system: SW-620 colon
IGROV1 ovarian = test system: IGROV1 ovarian
DU-145 prostate = test system: DU-145 prostate
K-562 leukemia = test system: K-562 leukemia
MCF7 breast = test system: MCF7 breast
OVCAR-5 ovarian = test system: OVCAR-5 ovarian
HCT-116 colon = test system: HCT-116 colon
MDA-MB-231 breast = test system: MDA-MB-231 breast
SK-OV-3 ovarian = test system: SK-OV-3 ovarian
NCI-H226 lung = test system: NCI-H226 lung
OVCAR-4 ovarian = test system: OVCAR-4 ovarian
HOP-92 NSCLC = test system: HOP-92 NSCLC
CCRF-CEM leukemia = test system: CCRF-CEM leukemia
HCT-15 colon = test system: HCT-15 colon
LOX IMVI melanoma = test system: LOX IMVI melanoma
KM12 colon = test system: KM12 colon
RXF 393 renal = test system: RXF 393 renal
PC-3 prostate = test system: PC-3 prostate
HL-60(TB) leukemia = test system: HL-60(TB) leukemia
SK-MEL-5 melanoma = test system: SK-MEL-5 melanoma
U251 CNS = test system: U251 CNS
UO-31 renal = test system: UO-31 renal
SNB-19 CNS = test system: SNB-19 CNS
HCC-2998 colon = test system: HCC-2998 colon
A549 NSCLC = test system: A549 NSCLC
CAKI-1 renal = test system: CAKI-1 renal
UACC-257 melanoma = test system: UACC-257 melanoma
COLO 205 colon = test system: COLO 205 colon
SN12C renal = test system: SN12C renal
TK-10 renal = test system: TK-10 renal
SNB-75 CNS = test system: SNB-75 CNS
SK-MEL-2 melanoma = test system: SK-MEL-2 melanoma
HT29 colon = test system: HT29 colon
MDA-MB-435 = test system: MDA-MB-435
MDA-MB-468 breast = test system: MDA-MB-468 breast
HOP-62 NSCLC = test system: HOP-62 NSCLC
ACHN renal = test system: ACHN renal
HS 578T breast = test system: HS 578T breast
SF-539 CNS = test system: SF-539 CNS
BT-549 breast = test system: BT-549 breast
EKVX NSCLC = test system: EKVX NSCLC
SF-295 CNS = test system: SF-295 CNS
MOLT-4 leukemia = test system: MOLT-4 leukemia

## C=C(C)[C@@H]1CC[C@]2(COP(=O)(OCC)OCC)CC[C@]3(C)[C@H](CC[C@@H]4[C@@](C)(CCCN)[C@H](C(=C)C)CC[C@]43C)[C@@H]12
OVCAR-8 ovarian
  GI50: 6.35 µM
  TGI: 23.1 µM
MALME-3M melanoma
  GI50: 7.16 µM
  TGI: 19.7 µM
NCI/ADR-RES ovarian
  GI50: 5.45 µM
  TGI: 21.7 µM
T-47D breast
  GI50: 3.23 µM
  TGI: 13.9 µM
A498 renal
  GI50: 12.5 µM
  TGI: 25.2 µM
NCI-H23 lung
  GI50: 4.73 µM
  TGI: 17.8 µM
NCI-H522 lung
  GI50: 3.01 µM
  TGI: 14.1 µM
OVCAR-3 ovarian
  GI50: 3 µM
  TGI: 12.7 µM
SK-MEL-28 melanoma
  GI50: 7.84 µM
  TGI: 20.2 µM
UACC-62 melanoma
  GI50: 4.45 µM
  TGI: 17.2 µM
SF-268 CNS
  GI50: 6.46 µM
  TGI: 23.8 µM
786-0 renal
  GI50: 5.04 µM
  TGI: 19.9 µM
NCI-H460 lung
  GI50: 3.43 µM
  TGI: 14.2 µM
M14 melanoma
  GI50: 5.13 µM
  TGI: 20.4 µM
SR leukemia
  GI50: 3.66 µM
  TGI: > 100 µM
SW-620 colon
  GI50: 3.49 µM
  TGI: 15.1 µM
IGROV1 ovarian
  GI50: 11.4 µM
  TGI: 23.7 µM
DU-145 prostate
  GI50: 10.9 µM
  TGI: 23.8 µM
K-562 leukemia
  GI50: 3.77 µM
  TGI: > 100 µM
MCF7 breast
  GI50: 3.08 µM
  TGI: 12 µM
OVCAR-5 ovarian
  GI50: 10.9 µM
  TGI: 22.8 µM
HCT-116 colon
  GI50: 2.92 µM
  TGI: 13.2 µM
MDA-MB-231 breast
  GI50: 7.53 µM
  TGI: 20.1 µM
SK-OV-3 ovarian
  GI50: 13.6 µM
  TGI: 28.7 µM
NCI-H226 lung
  GI50: 5.64 µM
  TGI: 22 µM
OVCAR-4 ovarian
  GI50: 5.35 µM
  TGI: 21.8 µM
HOP-92 NSCLC
  GI50: 2.63 µM
  TGI: 16.2 µM
CCRF-CEM leukemia
  GI50: 2.81 µM
  TGI: 11.3 µM
HCT-15 colon
  GI50: 3.76 µM
  TGI: 13.7 µM
LOX IMVI melanoma
  GI50: 4.77 µM
  TGI: 17.2 µM
KM12 colon
  GI50: 4.73 µM
  TGI: 17.8 µM
RXF 393 renal
  GI50: 3.42 µM
  TGI: 15.2 µM
PC-3 prostate
  GI50: 2.24 µM
  TGI: 11.4 µM
HL-60(TB) leukemia
  GI50: 2.87 µM
  TGI: 9.23 µM
SK-MEL-5 melanoma
  GI50: 3.47 µM
  TGI: 12.9 µM
U251 CNS
  GI50: 6.51 µM
  TGI: 20.7 µM
UO-31 renal
  GI50: 3.58 µM
  TGI: 15.2 µM
SNB-19 CNS
  GI50: 10 µM
  TGI: 21.7 µM
HCC-2998 colon
  GI50: 3.7 µM
  TGI: 15.1 µM
A549 NSCLC
  GI50: 4.45 µM
  TGI: 18.5 µM
CAKI-1 renal
  GI50: 4.12 µM
  TGI: 17.3 µM
UACC-257 melanoma
  GI50: 5.55 µM
  TGI: 18.3 µM
COLO 205 colon
  GI50: 4.56 µM
  TGI: 19.2 µM
SN12C renal
  GI50: 4.37 µM
  TGI: 16.6 µM
TK-10 renal
  GI50: 12 µM
  TGI: 25.2 µM
SNB-75 CNS
  GI50: 5.01 µM
  TGI: 20 µM
SK-MEL-2 melanoma
  GI50: 9.64 µM
  TGI: 22.6 µM
HT29 colon
  GI50: 4.03 µM
  TGI: 16.2 µM
MDA-MB-435
  GI50: 4.07 µM
  TGI: 17.4 µM
MDA-MB-468 breast
  GI50: 2.56 µM
  TGI: 11.3 µM
HOP-62 NSCLC
  GI50: 11.1 µM
  TGI: 24.9 µM
ACHN renal
  GI50: 5.54 µM
  TGI: 18.1 µM
HS 578T breast
  GI50: 4.67 µM
  TGI: 24.3 µM
SF-539 CNS
  GI50: 10.4 µM
  TGI: 22.1 µM
BT-549 breast
  GI50: 9.88 µM
  TGI: 22.2 µM
EKVX NSCLC
  GI50: 4.88 µM
  TGI: 18.5 µM
SF-295 CNS
  GI50: 4.43 µM
  TGI: 17.6 µM
MOLT-4 leukemia
  GI50: 3.27 µM
  TGI: 16.1 µM
